Results from paper PMC9975698, “Hyperoside alleviates toxicity of β-amyloid via endoplasmic reticulum-mitochondrial calcium signal transduction cascade in APP/PS1 double transgenic Alzheimer's disease mice” (Redox Biology, 2023).

Key:
[1] = Pharmacokinetics in serum after IV or IN administration; format: in vivo; conditions: 20 mg/kg, mice; for AUC(0-t) / Cmax / Tmax / k el / half-life: mouse, serum; for k el: read-out: Serum Ke (converted); for half-life: read-out: Serum t1/2 (converted)
Protocol: (§1) After tail vein injection or nasal administration, blood was collected at 5, 15 and 30 min, 1, 2, 4, 8, 12, 24, 48, 72, 120 and 168 h, for immediate centrifugation at 14,000 rpm for 5 min. The serum was harvested and stored at −20 °C until further processing. Brain tissue was collected and was thoroughly rinsed in saline to eliminate blood and blotted dry with filter paper. Each tissue sample was homogenized in saline (1:5, w/v) and stored at −20 °C until analysis. 50 μL of serum or 100 μL of brain tissue was put in a 1.5 mL EP tube, followed by the addition of 20 μL of internal standard solution (10 μM ISO). The protein was precipitated with 1 mL of ethyl acetate, vortexed for 5 min and centrifuged at 20,000 g (4 °C and 10 min). The supernatant solution was nitrogen blown to dry and re-suspended with 100 μL of 50% acetonitrile for centrifugation again. The supernatant was taken for analysis by using LC-MS/MS. HYP content was quantified using UHPLC-MS/MS system, which includes Agilent 1290 Infinity UHPLC, and Agilent 6460 Triple Quadrupole, equipped with an electrospray ionization interface used to generate positive ions for the determination of HYP. The compounds were analyzed by using the Agilent Zorbax Eclipse Plus C-18 column with a particle size of […] (flow rate: 0.35 mL/min). The mobile phase was set as follows: mobile phase A (0.1% formic acid in water) and mobile phase B (0.1% formic acid in ACN): 0–3 min, 10–30% B; 3–4 min, 70% B; 4–5 min, 30–70% B; 5–6 min, 70-10% B. The column and auto-sampler temperature were maintained at 30 °C and 4 °C, respectively. Data were analyzed by using Agilent MassHunter Workstation software B.01.03. The gas temperature was set at 300 °C with a flow rate of 11 L/min. Gases were set at 30 psi for the nebulizer, capillary, at 4000 V. For the HYP, the fragment was 170. The collision energy was set at 30; The mass transitions were as follows based on multiple reaction monitoring: m/z 464.38 → 299.9. For the Isorhamnetin (ISO), the fragment was 150. The collision energy was set at 30; The mass transitions were as follows based on multiple reaction monitoring: m/z 315.4 → 300.1, The measurements of HYP were done using the standard and linear least-squares regression curve.

[2] = Survival, body weight and organ index during the in vivo experiment; parameters: species or system mice; conditions: HYP 20/40/80 mg/kg nasal, every 3 days, 8 weeks
Protocol: All animal care and experimental procedures were performed in accordance with the “Institutional Animal Care and User Committee Guidelines” of the Macau University of Science and Technology. APP/PSEN1 (APP/PS1) mice (N000175) were purchased from the Nanjing Institute of Biomedical Sciences, Nanjing University, China, weighing 25 ± 5 g. The animals were housed in a temperature-controlled room with a 12 h light/dark cycle and given ad libitum food and water. Male mice were randomly divided into the following 6 experimental groups. (a) wild-type group (n = 6), (b) APP/PS1 group (n = 6), (c) HYP (20 mg/kg group) (n = 7), (d) HYP (40 mg/kg) group (n = 8), (e) HYP (80 mg/kg) group (n = 8) and (f) memantine (MEM) (10 mg/kg) positive control group (n = 8). HYP was dissolved in the solvent containing 10% DMSO, 40% PEG300 and 5% Tween-80 in PBS, and administrated via nasal injection for every 3 days with a volume of 0.5 μL/g of body weight for 8 consecutive weeks.

[3] = Pharmacokinetics in brain after IV or IN administration; format: in vivo; conditions: 20 mg/kg, mice; for Tmax / k el / half-life: mouse, brain; for k el: read-out: Brain Ke (converted); for half-life: read-out: Brain t1/2 (converted)
Protocol: as §1

APP/PS1 mice = experiment: Thioflavin S staining of Aβ plaques in brain; format: in vivo; conditions: cortex and hippocampus, HYP 20/40/80 mg/kg nasal, 8 weeks
Protocol: All animal care and experimental procedures were performed in accordance with the “Institutional Animal Care and User Committee Guidelines” of the Macau University of Science and Technology. APP/PSEN1 (APP/PS1) mice (N000175) were purchased from the Nanjing Institute of Biomedical Sciences, Nanjing University, China, weighing 25 ± 5 g. The animals were housed in a temperature-controlled room with a 12 h light/dark cycle and given ad libitum food and water. Male mice were randomly divided into the following 6 experimental groups. (a) wild-type group (n = 6), (b) APP/PS1 group (n = 6), (c) HYP (20 mg/kg group) (n = 7), (d) HYP (40 mg/kg) group (n = 8), (e) HYP (80 mg/kg) group (n = 8) and (f) memantine (MEM) (10 mg/kg) positive control group (n = 8). HYP was dissolved in the solvent containing 10% DMSO, 40% PEG300 and 5% Tween-80 in PBS, and administrated via nasal injection for every 3 days with a volume of 0.5 μL/g of body weight for 8 consecutive weeks. Paraffin sections of the brain were washed three times with PBS after dewaxing and then stained with THS dissolved in 50% alcohol for 7 min, followed by 50% alcohol solution for washing. Sections were then air-dried and sealed with neutral gel for microscopic observation. Images were captured by API DeltaVision Live‐cell Imaging System (Applied Precision Inc., DC, USA).

HT22 cells [4] = experiment: Cytoplasmic calcium dynamics (FLIPR Calcium 6); format: cell-based
Protocol: Intracellular Ca^2+ dynamics were determined using the FLIPR Calcium 6 Assay Kit (Molecular Devices) according to the manufacturer's instructions. Briefly, HT22 was housed at 4 × 10^4 cells per well in a black-walled and clear-bottom 96 multi-well plate (Costar, MA, USA) and treated with Calcium 6 reagent for 1 h.

HT22 cells [5] = experiment: Western blot of Bcl-2, Bax and cyto-c in HT22 cells; format: cell-based; conditions: HT22 cells co-treated with Aβ aggregates 30 μM and HYP, 24 h
Protocol: After HYP treatment, the cells were lysed with RIPA. Protein concentrations were determined by Bio-Rad protein assay (Bio-Rad Laboratories, CA, USA). After electrophoretic separation, the gels were blotted and stained with primary antibodies. Binding of antibodies was visualized with peroxidase-coupled secondary antibodies using ECL Western Blotting detection reagents (Invitrogen, Scotland, UK). Band intensities were quantified using ImageJ software. Data were obtained from three independent experiments.

O=c1c(O[C@@H]2O[C@H](CO)[C@H](O)[C@H](O)[C@H]2O)c(-c2ccc(O)c(O)c2)oc2cc(O)cc(O)c12 [HYP, Quercetin-3-O-β-D-galactopyranoside]
Serum F (AUCIN/AUCIV ratio) ([1]; IN): 23.2% | AUC(0-t) ([1]; inhaled or intranasal, IN): 5500 ± 1220 µg·h/mL | Cmax ([1]; inhaled or intranasal, IN): 300 ± 102 µg/mL | Tmax ([1]; inhaled or intranasal, IN): 0.5 h | k el ([1]; inhaled or intranasal, IN): 1.67e-05 s⁻¹ | half-life ([1]; inhaled or intranasal, IN): 25.6 ± 12.5 h | AUC(0-t) ([1]; IV): 23700 ± 1740 µg·h/mL | Cmax ([1]; IV): 1160 ± 268 µg/mL | Tmax ([1]; IV): 0.08 h | k el ([1]; IV): 0.000103 s⁻¹ | half-life ([1]; IV): 1.85 ± 1.25 h | survival, body weight and organ index [2]: all mice survived without significant changes in body weight | Brain Cmax ([3]; IN): 12.76 ± 1.56 ng/m | Brain F (AUCIN/AUCIV ratio) ([3]; IN): 603.72% | Brain Cmax ([3]; IV): 12.82 ± 0.40 ng/mL | Tmax ([3]; inhaled or intranasal, IN): 1 h | k el ([3]; inhaled or intranasal, IN): 5.56e-06 s⁻¹ | half-life ([3]; inhaled or intranasal, IN): 70.1 ± 5.04 h | Tmax ([3]; IV): 2 h | k el ([3]; IV): 1.94e-05 s⁻¹ | half-life ([3]; IV): 10.5 ± 1.63 h | level of Aβ plaques (ThS) (APP/PS1 mice): reduced the level of Aβ plaques in the cortex and hippocampus of APP/PS1 mice in a dose-dependent manner | dynamic Ca2+ level induced by Aβ (HT22 cells [4]; HT22 cells, Aβ 30 μM + HYP 20–80 μM, calcium-containing HBSS): decreased the level of Ca^2+ in a dose dependent manner | dynamic Ca2+ level induced by Aβ (HT22 cells [4]; HT22 cells, Aβ 30 μM + HYP 20–80 μM, calcium-free HBSS): downregulated the Aβ -induced level of Ca^2+ in a dose-dependent manner | dynamic Ca2+ level induced by Aβ (HT22 cells [4]; si-RyR2 HT22 cells, aggregated Aβ 30 μM + HYP 40 μM): restored the Aβ-induced dishomeostasis of Ca^2+ in si-RyR2 HT22 cells (Fig. 9H) to a lesser extent | ratio of Bax / Bcl-2 and level of cyto-c (HT22 cells [5]): ratio of Bax / Bcl-2 was decreased with the reduction in the level of cyto-c
